In brackets after ≈: the same amount, converted by molar mass. Where two headings read alike, the source gives them in different places.

Results on four compounds are retold here after patent publication US12371441B2, “Siderophore cephalosporin conjugates and uses thereof” (ARIVA MED GMBH, priority 2019, dated 2025).

In assay [1] the test system is Acinetobacter baumannii ATCC 15473. Description: MIC by standard broth microdilution (CLSI), Acinetobacter baumannii. Format: cell-based. As for the experimental part:
(§1) The in vitro activity against bacteria was determined by standard broth microdilution according to the Clinical and Laboratory Standards Institute CLSI document (Performance Standards for Antimicrobial Susceptibility Testing) M100Ed29E (2019) and (Methods for Dilution Antimicrobial Susceptibility Test for Bacteria That Grow Aerobically) M07Ed11 (2018). The data were obtained using cation-adjusted Mueller Hinton broth medium (CAMHB), and additionally iron-depleted CAMHB medium (ID-CAMHB) for compounds with iron-chelating activity.

For assay [2], the system named is Klebsiella pneumoniae ATCC 43816. The assay is described as follows: MIC by standard broth microdilution (CLSI), Klebsiella pneumoniae. The class given is cell-based. The protocol:
as §1

The nature of assay [3]: Chromeazurol assay (iron-chelating property). The settings on record: for IC50: absorbance at 630 nm. The class given is physicochemical. The protocol:
The iron-chelating property was determined by the chromeazurol assay according to Schwyn B., et al, Universal Chemical Assay for the Detection and Determination of Siderophores, 1987. Analytical Biochemistry 160: 47-56. The assay uses the affinity of chrome azurol S/iron(III)/hexadecyltrimethylamimonium bromide for iron(III). When a strong chelator removes the iron from this dye, its color turns from blue to orange and the absorbance measured at 630 nm is indicative for the chelating properties of a siderophore.

For assay [4], the system named is Pseudomonas aeruginosa ATCC 27853. Description: MIC by standard broth microdilution (CLSI), Pseudomonas aeruginosa. Format: cell-based. As for the experimental part:
as §1
A general note: Dilution methods test growth across graded concentrations, often in twofold steps.

The test system of assay [5] is Escherichia coli ATCC 25922. Description: MIC by standard broth microdilution (CLSI), Escherichia coli. Format: cell-based. As for the experimental part:
as §1

Assay [6] relates to Burkholderia cepacia CF and non-CF isolates, n = 5. Description: MIC by standard broth microdilution (CLSI), Burkholderia cepacia isolates. Format: cell-based. The protocol: as §1
[7] abbreviates: ATCC15473, AB ATCC 15473, cation-adjusted Mueller Hinton broth (CAMHB), read-out: MIC in CAMHB medium.
[8] abbreviates: ATCC15473, AB ATCC 15473, iron-depleted CAMHB (value in parentheses), read-out: MIC in ID-CAMHB medium.
[9] abbreviates: ATCC43816, KP ATCC 43816, cation-adjusted Mueller Hinton broth (CAMHB), read-out: MIC in CAMHB medium.
[10] abbreviates: ATCC43816, KP ATCC 43816, iron-depleted CAMHB (value in parentheses), read-out: MIC in ID-CAMHB medium.
The mark [11] stands for this setting: ATCC27853, PA ATCC 27853, cation-adjusted Mueller Hinton broth (CAMHB), read-out: MIC in CAMHB medium.
The mark [12] stands for this setting: ATCC27853, PA ATCC 27853, iron-depleted CAMHB (value in parentheses), read-out: MIC in ID-CAMHB medium.
The mark [13] stands for this setting: ATCC25922, EC ATCC 25922, cation-adjusted Mueller Hinton broth (CAMHB), read-out: MIC in CAMHB medium.
The mark [14] stands for this setting: ATCC25922, EC ATCC 25922, iron-depleted CAMHB (value in parentheses), read-out: MIC in ID-CAMHB medium.

The MIC is the lowest concentration that inhibits growth of the organism. By IC50 is commonly meant the concentration needed to halve the response being measured. Higher therefore signals weaker potency in that assay. Take `CC(C)(O/N=C(\C(=O)NC1C(=O)N2C(C(=O)O)=C(C=NOCCNC(=O)c3ccc(O)c(O)c3Cl)CSC12)c1csc(N)n1)C(=O)O` (stereo not drawn) [Example 4, 7-[[(2Z)-2-(2-aminothiazol-4-yl)-2-(1-carboxy-1-methyl-ethoxy)imino-acetyl]amino]-3-[2-[(2-chloro-3,4-dihydroxy-benzoyl)amino]ethoxyiminomethyl]-8-oxo-5-thia-1-azabicyclo[4.2.0]oct-2-ene-2-carboxylic acid]: the MIC in assay [1] (setting [7]) is 4 µg/mL (≈ 5.62 µM); in assay [1] (setting [8]), 1 µg/mL (≈ 1.4 µM); in assay [2] (setting [9]), 0.06 µg/mL (≈ 0.0843 µM); in assay [2] (setting [10]) it was 0.06 µg/mL (≈ 0.0843 µM); in assay [4] (setting [11]) it was 2 µg/mL (≈ 2.81 µM); in assay [4] (setting [12]), 0.5 µg/mL (≈ 0.702 µM). Also, the MIC in assay [5] (setting [13]) was 0.25 µg/mL (≈ 0.351 µM); in assay [5] (setting [14]), 0.25 µg/mL (≈ 0.351 µM); in assay [6] (read-out: MIC in CAMHB medium) it was 0.03 to 0.12 µg/mL (≈ 0.0421 to 0.169 µM); in assay [6] (read-out: MIC in ID-CAMHB medium), 0.03 to 0.06 µg/mL (≈ 0.0421 to 0.0843 µM). The same compound gave an IC50 in assay [3] of 4.22 µM. Besides, the “iron-chelating activity compared with cefiderocol” value in assay [3] (versus the one measured for cefiderocol (table 1)) is recorded as “an order of magnitude stronger”.

Regarding `Nc1nc(/C(=N/OCF)C(=O)NC2C(=O)N3C(C(=O)O)=C(C=NOCCNC(=O)c4ccc(O)c(O)c4Cl)CSC23)ns1` (stereo not drawn) [Example 6, 7-[[(2Z)-2-(5-amino-1,2,4-thiadiazol-3-yl)-2-(fluoromethoxyimino)-acetyl]amino]-3-[2-[(2-chloro-3,4-dihydroxy-benzoyl)amino]ethoxyiminomethyl]-8-oxo-5-thia-1-azabicyclo[4.2.0]oct-2-ene-2-carboxylic acid], the MIC in assay [1] (setting [7]) is 4 µg/mL (≈ 6.07 µM); in assay [1] (setting [8]), 4 µg/mL (≈ 6.07 µM); in assay [2] (setting [9]) it was ≤ 0.03 µg/mL; in assay [2] (setting [10]), ≤ 0.03 µg/mL; in assay [4] (setting [11]), 4 µg/mL (≈ 6.07 µM); in assay [4] (setting [12]), 1 µg/mL (≈ 1.52 µM). The MIC was found to be 0.25 µg/mL (≈ 0.379 µM) in assay [5] (setting [13]) and 0.12 µg/mL (≈ 0.182 µM) in assay [5] (setting [14]). The same compound registered an IC50 in assay [3] of 6.46 µM.

`Nc1nc(/C(=N/OCF)C(=O)N[C@@H]2C(=O)N3C(C(=O)O)=C(C=NOCc4cc(=O)c(O)cn4O)CS[C@H]23)ns1` [Example 3, (6R,7R)-7-[[(2Z)-2-(5-amino-1,2,4-thiadiazol-3-yl)-2-(fluoromethoxyimino)acetyl]amino]-3-[(1,5-dihydroxy-4-oxo-2-pyridyl)methoxyiminomethyl]-8-oxo-5-thia-1-azabicyclo[4.2.0]oct-2-ene-2-carboxylic acid]: the MIC in assay [1] (setting [7]) is 8 µg/mL (≈ 13.7 µM); in assay [1] (setting [8]) it was 16 µg/mL (≈ 27.4 µM); in assay [2] (setting [9]), ≤ 0.03 µg/mL; in assay [2] (setting [10]), ≤ 0.03 µg/mL; in assay [4] (setting [11]), 4 µg/mL (≈ 6.84 µM); in assay [4] (setting [12]), 0.5 µg/mL (≈ 0.855 µM). For the same compound, the minimal inhibitory concentration (MIC) in assay [5] (setting [13]) and in assay [5] (setting [14]) was ≤ 0.03 µg/mL each time. In assay [3], this compound registered an IC50 of 7.96 µM.

As for `CC(C)(O/N=C(\C(=O)NC1C(=O)N2C(C(=O)O)=C(C=NO[C@H]3CCN(C(=O)c4ccc(O)c(O)c4Cl)C3)CSC12)c1csc(N)n1)C(=O)O` (stereo partly drawn) [Example 8, 7-[[(2Z)-2-(2-aminothiazol-4-yl)-2-(1-carboxy-1-methyl-ethoxy)imino-acetyl]amino]-3-{[(3S)-1-(2-chloro-3,4-dihydroxy-benzoyl)pyrrolidine-3-yl]oxyiminomethyl}-8-oxo-5-thia-1-azabicyclo[4.2.0]oct-2-ene-2-carboxylic acid], the MIC in assay [1] (setting [7]) was 0.5 µg/mL (≈ 0.677 µM); in assay [1] (setting [8]) it was 0.5 µg/mL (≈ 0.677 µM); in assay [2] (setting [9]), < 0.03 µg/mL; in assay [2] (setting [10]) it was < 0.03 µg/mL; in assay [4] (setting [11]) it was 1 µg/mL (≈ 1.35 µM); in assay [4] (setting [12]), 0.25 µg/mL (≈ 0.339 µM). The MIC in assay [5] (setting [13]) and in assay [5] (setting [14]) was 0.12 µg/mL (≈ 0.163 µM) in each case. For the same compound, the IC50 in assay [3] came to 5.64 µM.
